Each block holds one compound with its values, some of them ahead of it.
How the values were obtained:
p-glycoprotein = assay: In vivo pharmacokinetic assay with the PgP transport inhibitor Elacridar; settings: rat; Elacridar 3 mg/kg intravenous shortly before oral 1 mg/kg; 0.5 h; indicates absence of notable p-glycoprotein interactions
Protocol: Adult male rats (Charles River, Italy) were dosed with test compound orally at 1 mg/kg (5 ml/kg, in 5% v/v DMSO, 0.5% w/v HPMC in water) and intravenously at 0.5 mg/kg (2 ml/kg, in 5% v/v DMSO 40% w/v PEG400 in saline). After oral administration, blood samples were collected under deep Isofluorane anesthesia from the portal vein and heart of each rat (1 rat per time point). After intravenous administration, serial blood samples were collected from the lateral tail vein of each rat. A further group of rats (n=1 per test compound) received a single intravenous administration of the PgP transport inhibitor, Elacridar (3 mg/kg) shortly before the oral administration of the test compound at 1 mg/kg, as above. Blood and brain samples were collected at a single timepoint of 0.5 h after dose administration for these animals. In all cases, blood samples were collected into potassium EDTA tubes.
Blood and brain samples were assayed for test compound concentration using a method based on protein precipitation with acetonitrile followed by HPLC/MS-MS analysis with an optimized analytical method.
The concentrations of test compound in blood (expressed as ng/ml) and brain (expressed as ng/g) at the different time points following either oral or intravenous dosing were analysed using a non-compartmental pharmacokinetic model using WinNonLin Professional version 4.1. The following parameters were derived:
Oral dosing: Cmax, time of maximum concentration (Tmax), AUC, bioavailability (F %), fraction absorbed (Fa %), blood to brain ratio (AUC BB), and Fold-change in AUC BB in the presence of Elacridar.

[1] = tested on: amphetamine induced hyperlocomotion; assay: Mouse model of amphetamine induced hyperlocomotion; assay type: in vivo; settings: 60 mg/kg, 60 minute period following amphetamine administration, P<0.01
Protocol: Example 33 was tested in the_mouse model of amphetamine induced hyperlocomotion described in Example 93 of WO2011/069951A1.

[2] = molecular target: T1, human Kv3.1 channels (hKv3.1) (Homo sapiens, UniProt P48547); assay: IonWorks Quattro electrophysiology, potentiation of hKv3.1 currents; assay type: cell-based; settings: between Kv3.1 and Kv3.2 channels
T1 construct: expressed in transfected cells; host or cells: CHO/Gam/E1A-clone22 (CGE22) cells, CHO-K1-derived, transiently transduced with BacMam pFBM/human Kv3.1
T1 sequence (P48547 1-511): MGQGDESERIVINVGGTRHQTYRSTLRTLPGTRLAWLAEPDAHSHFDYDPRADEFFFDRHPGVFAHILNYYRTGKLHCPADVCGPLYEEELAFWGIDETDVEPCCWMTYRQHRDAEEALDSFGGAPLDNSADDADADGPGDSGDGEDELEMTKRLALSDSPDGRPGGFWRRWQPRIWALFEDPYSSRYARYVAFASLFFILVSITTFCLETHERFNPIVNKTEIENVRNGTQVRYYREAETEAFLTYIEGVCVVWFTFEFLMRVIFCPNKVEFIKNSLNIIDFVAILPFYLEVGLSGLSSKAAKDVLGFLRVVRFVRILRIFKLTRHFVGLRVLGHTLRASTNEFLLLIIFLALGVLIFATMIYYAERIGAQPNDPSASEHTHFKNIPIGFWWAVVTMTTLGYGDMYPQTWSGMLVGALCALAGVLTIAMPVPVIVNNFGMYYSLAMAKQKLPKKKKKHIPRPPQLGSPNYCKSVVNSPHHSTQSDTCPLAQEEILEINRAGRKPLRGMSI

SMILES: CC1(C)NC(=O)N(c2ccc(Oc3ccc4c(c3)C(C(C)(C)C)OC4)nc2)C1=O (single isomer, unassigned) [Example 50, 3-[6-[(3-tert-butyl-1,3-dihydroisobenzofuran-5-yl)oxy]-3-pyridyl]-5,5-dimethyl-imidazolidine-2,4-dione]
change in AUC BB in the presence of Elacridar (p-glycoprotein): limited change

SMILES: CC[C@@]1(C)NC(=O)N(c2ccc(Oc3ccc4c(c3)C(C)(C)OC4)nc2)C1=O [Example 33, (5R)-3-[6-[(3,3-dimethyl-1H-isobenzofuran-5-yl)oxy]-3-pyridyl]-5-ethyl-5-methyl-imidazolidine-2,4-dione]
change in AUC BB in the presence of Elacridar (p-glycoprotein): limited change
increase in locomotor activity induced by amphetamine [1]: completely prevented

SMILES: CC[C@H]1NC(=O)N(c2ccc(Oc3cccc4c3C3(CC3)CO4)nc2)C1=O [Reference Example 87, (5R)-5-ethyl-3-[6-(spiro[1-benzofuran-3,1′-cyclopropan]-4-yloxy)-3-pyridinyl]-2,4-imidazolidinedione]
difference in pEC50 values between the two channels [2]: 0.7 log unit

SMILES: CC1(C)NC(=O)N(c2ccc(Oc3cccc4c3C3(CC3)CO4)nc2)C1=O [Reference Example 88, 5,5-dimethyl-3-[6-(spiro[1-benzofuran-3,1′-cyclopropan]-4-yloxy)-3-pyridinyl]-2,4-imidazolidinedione]
difference in pEC50 values between the two channels [2]: 0.7 log unit

Continued, values first:

change in AUC BB in the presence of Elacridar (p-glycoprotein): limited change
SMILES: CC1(C)NC(=O)N(c2ccc(Oc3ccc4c(c3)C(C)(C(F)(F)F)OC4)nc2)C1=O (single isomer, unassigned) [Example 52, 5,5-dimethyl-3-[6-[[3-methyl-3-(trifluoromethyl)-1H-isobenzofuran-5-yl]oxy]-3-pyridyl]imidazolidine-2,4-dione]

change in AUC BB in the presence of Elacridar (p-glycoprotein): limited change
SMILES: CC1(C)NC(=O)N(c2cnc(Oc3ccc4c(c3)C3(CCCC3)OC4)nc2)C1=O [Example 12, 5,5-dimethyl-3-(2-spiro[1H-isobenzofuran-3,1′-cyclopentane]-5-yloxypyrimidin-5-yl)imidazolidine-2,4-dione]

change in AUC BB in the presence of Elacridar (p-glycoprotein): limited change
SMILES: CC1(C)NC(=O)N(c2ccc(Oc3ccc4c(c3)C3(CCC3)OC4)nc2)C1=O [Example 58, 5,5-dimethyl-3-(6-spiro[1H-isobenzofuran-3,1′-cyclobutane]-5-yloxy-3-pyridyl)imidazolidine-2,4-dione]

Source: patent US9193704B2, “Hydantoin derivatives as KV3 inhibitors” (AUTIFONY THERAPEUTICS LIMITED, priority 2011, dated 2015)
